The values below come from publication PMC9073595, “Synthesis, human topoisomerase IIα inhibitory properties and molecular modeling studies of anti-proliferative curcumin mimics” (RSC Advances, 2019).

In series [1] the test system is HCT116 (colon) carcinoma cell line. Description: MTT anti-proliferative assay, HCT116. The series is classed as cell-based. As to conditions: Homo sapiens, HCT-116, 72 h; read-out: IC50, μM ± SD, HCT116. Background: Tetrazolium dyes change colour on reduction, which living cells bring about.
Series [2] deals with MCF7 (breast) carcinoma cell line. The series can be described thus: MTT anti-proliferative assay, MCF7. The series is classed as cell-based. As to conditions: Homo sapiens, MCF7, 72 h; read-out: IC50, μM ± SD, MCF7.
Series [3] has as its system A431 (squamous skin) carcinoma cell line. The series can be described thus: MTT anti-proliferative assay, A431. In kind it is cell-based. As to conditions: Homo sapiens, A-431, 72 h; read-out: IC50, μM ± SD, A431.
Series [4] concerns RPE1 (normal human immortalized retinal pigment epithelial cell line). The series can be described thus: MTT assay on normal cells, RPE1. The series is classed as cell-based. As to conditions: RPE-1, RPE1 normal (non-cancer) cell line, read-out: IC50, μM ± SD, RPE1. How it is done:
In-vitro antitumor screening
The targeted piperidinecarboxamides 24‒51 were screened for their antitumor properties against HCT116 (colon), MCF7 (breast) and A431 (squamous skin) carcinoma cell lines by the standard mitochondrial dependent reduction of yellow MTT [3-(4,5-dimethylthiazol-2-yl)-2,5-diphenyl-tetrazolium bromide] to purple formazan technique.11 Cells were suspended in McCoy’s 5A medium for HCT116, DMEM for MCF-7 and A431 in addition to 1% antibiotic–antimycotic mixture (10000 μg ml-1 potassium penicillin, 10000 μg ml-1 streptomycin sulfate and 25 μg ml-1 amphotericin B), 10% fetal bovine serum and 1% L-glutamine at 37 °C, under 5% CO2 and 95% humidity. Cells were seeded at concentration of 30000 cells per well in fresh complete growth medium in 96-well tissue culture microtiter plates for 24 h. Media was aspirated, fresh complete medium was added and cells were incubated with different concentrations of the tested compound to give a final concentration of [50, 25, 12.5 and 6.25 μM ([…] and 0.375 μM for the high potent analogues)]. 0.5% DMSO was used as negative control and 5-fluorouracil was used as positive control (standard reference). Triplicate wells were prepared for each individual dose. After 72 h of incubation, medium was aspirated, 40 μl MTT salt (2.5 mg ml-1) were added to each well and incubated for further 4 h at 37 °C.
To stop the reaction and dissolve the formed crystals, 150 μl of 10% sodium dodecyl sulfate (SDS) in deionized water were added to each well and incubated overnight at 37 °C. The absorbance was then measured at 570 nm and a reference wavelength of 595 nm.
Data were collected as mean values for experiments performed in triplicates for each individual dose which had been measured by MTT assay. Control experiments did […]
survival was calculated according to equ. (1).
Surviving fraction = … . (1)
The synthesized compounds 24‒51 were also tested against RPE1 (normal human immortalized retinal pigment epithelial cell line) cell to determine the toxicity/selectivity […]
towards normal cells relative to the carcinoma cell lines utilized. The IC50 (concentration […]
was determined using Graph-Pad PRISM version-5 software. Statistical calculations for determination of the mean and standard error values were determined by SPSS 16 […]
8:1 which is the ratio between the data points and the number of QSAR descriptor).
Human DNA topoisomerase IIα inhibitory properties

Where only a bound is given, the exact number is not on record here.

The term IC50 denotes the concentration needed to halve the response being measured. Consider `COc1cc(/C=C/C(=O)CC(=O)/C=C/c2ccc(O)c(OC)c2)ccc1O` [Curcumin], for which the IC50 came to 38.2 ± 2.36 µM in series [1] and 16 ± 2.04 µM in series [2].
The term melting point denotes the temperature, or range, at which the solid turns liquid. On to `CCNC(=O)N1C/C(=C\c2ccc(Cl)cc2)C(=O)/C(=C/c2ccc(Cl)cc2)C1` [Compound 32, 3,5-Bis[(E)-4-chlorobenzylidene]-N-ethyl-4-oxopiperidine-1-carboxamide], for which the melting point was 211 to 213 °C. Further, in series [1], the half-inhibitory concentration (IC50) stood at 1.04 ± 0.11 µM. Moreover, the 50% inhibitory concentration (IC50) in series [2] was 2.35 ± 0.23 µM. For the same compound, the half-maximal inhibitory concentration (IC50) in series [3] is 1.31 ± 0.09 µM. The 50% inhibitory concentration (IC50) in series [4] was found to be 12.1 ± 1.76 µM.
In the same order, the values of `O=C1/C(=C/c2ccccc2)CN(C(=O)Nc2ccccc2)C/C1=C\c1ccccc1` [Compound 24, 3,5-Di[(E)-benzylidene]-4-oxo-N-phenylpiperidine-1-carboxamide] are 179 to 181 °C, 1.08 ± 0.18 µM, 1.83 ± 0.14 µM, 2.49 ± 0.31 µM and 16.6 ± 1.57 µM.
For the compound `O=C1/C(=C/c2ccccc2)CN(C(=O)NCc2ccccc2)C/C1=C\c1ccccc1` [Compound 28, N-Benzyl-3,5-di[(E)-benzylidene]-4-oxopiperidine-1-carboxamide], the melting point fell in the range of 163 to 165 °C. For the same compound, the IC50 in series [1] turned out to be 1.31 ± 0.22 µM. Also, in series [2], the IC50 worked out at 2.58 ± 0.3 µM. In addition, the IC50 in series [3] was found to be 2.58 ± 0.27 µM. In series [4], the IC50 came to 12 ± 1.76 µM.
On to `O=C1/C(=C/c2cccs2)CN(C(=O)Nc2ccccc2)C/C1=C\c1cccs1` [Compound 48, (3E,5E)-4-Oxo-N-phenyl-3,5-bis(thiophen-2-ylmethylene)piperidine-1-carboxamide], for which the 50% inhibitory concentration (IC50) was above 50 µM in series [1], 33.7 ± 1.38 µM in series [2], above 50 µM in series [3] and above 50 µM in series [4].
Consider `COc1ccc(NC(=O)N2C/C(=C\c3cccs3)C(=O)/C(=C/c3cccs3)C2)cc1` [Compound 49, (3E,5E)-N-(4-Methoxyphenyl)-4-oxo-3,5-bis(thiophen-2-ylmethylene)piperidine-1-carboxamide], for which the melting point fell in the range of 194 to 196 °C. The half-maximal inhibitory concentration (IC50) in series [1] worked out at 40.8 ± 2.61 µM. Besides, the IC50 in series [2] turned out to be 24.7 ± 1.99 µM. Further, in series [3], the 50% inhibitory concentration (IC50) is above 50 µM. Moreover, in series [4], the IC50 was above 50 µM.
For the compound `O=C1/C(=C/c2ccccc2)CN(C(=O)Nc2ccc(Cl)cc2)C/C1=C\c1ccccc1` [Compound 25, 3,5-Di[(E)-benzylidene]-N-(4-chlorophenyl)-4-oxopiperidine-1-carboxamide], the melting point lay within 186 to 188 °C. In addition, the IC50 in series [1] amounted to 1.03 ± 0.29 µM. Besides, in series [2], the IC50 is 2.09 ± 0.26 µM. The half-maximal inhibitory concentration (IC50) in series [3] turned out to be 2.51 ± 0.24 µM. Moreover, the half-inhibitory concentration (IC50) in series [4] worked out at 22.1 ± 2.06 µM.
`CCNC(=O)N1C/C(=C\c2cccs2)C(=O)/C(=C/c2cccs2)C1` [Compound 50, (3E,5E)-N-Ethyl-4-oxo-3,5-bis(thiophen-2-ylmethylene)piperidine-1-carboxamide] showed a melting point of 197 to 199 °C. Moreover, in series [1], the IC50 was 20.1 ± 2.44 µM. The concentration for half-maximal inhibition (IC50) in series [2] worked out at 21.7 ± 2.78 µM. The IC50 in series [3] was found to be 40.6 ± 2.88 µM. For the same compound, the IC50 in series [4] came out at 47.4 ± 2.66 µM.
On the same counts, the results for `COc1ccc(NC(=O)N2C/C(=C\c3ccc(Cl)cc3)C(=O)/C(=C/c3ccc(Cl)cc3)C2)cc1` [Compound 31, 3,5-Bis[(E)-4-chlorobenzylidene]-N-(4-methoxyphenyl)-4-oxopiperidine-1-carboxamide] are 210 to 212 °C, 1.03 ± 0.13 µM, 1.44 ± 0.19 µM, 1.24 ± 0.14 µM and 7.5 ± 1.75 µM.
Turning to `O=C1/C(=C/c2cccs2)CN(C(=O)NCc2ccccc2)C/C1=C\c1cccs1` [Compound 51, (3E,5E)-N-Benzyl-4-oxo-3,5-bis(thiophen-2-ylmethylene)piperidine-1-carboxamide], the half-maximal inhibitory concentration (IC50) in series [1], in series [2], in series [3] and in series [4] was above 50 µM in each case.
